Assay results from PMC11054528, “Evaluation of Physicochemical Properties of Ipsapirone Derivatives Based on Chromatographic and Chemometric Approaches” (Molecules, 2024).

Key:
[1] = calibration mixture for IAM-HPLC, reference CHI value; column head printed CHI C18; cited from earlier work
[2] = target: T1, human serum albumin (HSA) (Homo sapiens, UniProt P02768); conditions: calibration mixture for HSA-HPLC, reference value; column head printed CHI C18; cited from earlier work
[3] = calibration mixture for C18-HPLC, reference CHI value; cited from earlier work
[4] = target: T1, human serum albumin (HSA); experiment: HSA-HPLC, biomimetic chromatography on Chiralpak HSA column; format: in vitro ADME; design: purchased Daicel Chiral Technologies, West Chester, PA, USA; conditions: for LogKHSA: pH 7.4; for %HSA: pH 7.4, recalculated from logKHSA
Text: Utilizing columns modified by plasma proteins, such as human serum albumin (HSA), allows for estimating binding to plasma protein (PPB). Generally, PPB affects drug pharmacokinetics, including distribution, half-life, and clearance. While lipophilicity is a well-known factor in determining PPB, it should also be considered in early drug discovery. In general, more lipophilic compounds tend to have higher percentages of PP due to nonspecific interactions with proteins. However, hydrophilic compounds can also bind strongly to PP through […] and electrostatic interactions by binding in protein pockets.
For HSA-HPLC experiments, the column was Chiralpak® HSA (100 × 4 mm; 5 µm with safety guard column; Daicel Chiral Technologies, West Chester, PA, USA). The column temperature was set to 30 °C. The same phase A as in the IAM-HPLC case was used, and the mobile phase B was isopropanol (i-PrOH). The linear gradient from 0 to 20% i-PrOH was applied from 0 to 15 min, held at 20% i-PrOH for 12 min, and then returned to pure ammonium acetate solution. The mobile phase flow rate was 0.9 mL/min throughout the experiment. Three minutes of column recalibration was applied between each run. The retention times were collected at wavelengths between 190 and 300 nm, and the injection volume was 10 μL.

[5] = IAM-HPLC, immobilized artificial membrane chromatography (affinity to phospholipids); format: physicochemical; design: scale not given here; conditions: IAM.PC.DD2 column, pH 7.4
Text: In considering that lipophilicity is a known factor influencing passive diffusion across the BBB, this is an important observation. The affinity to phospholipids can also be determined using one-gradient protocols and the IAM column. CHIIAM can be used as a cut-off point to indicate the potential for promiscuous binding and interference with phospholipids.
The immobilized artificial membrane column (IAM.PC.DD2, 10 × 4.6 mm × 10.0 µm with a guard column (Regis Technologies; Morton Grove, IL, USA) was used for IAM-HPLC experiments. The column temperature was set to 30 °C. Similar to RP-HPLC, mobile phase A was a 50 mM ammonium acetate at pH 7.4, and mobile phase B was acetonitrile. The linear gradient from […] ACN was applied from 0 to 5.25 min and held at 98% ACN for 0.5 min at a constant flow rate of 1.5 mL/min.

[6] = Fast gradient RP-HPLC on C18 column (CHI lipophilicity); format: physicochemical; conditions: for CHIC18 pH = 2.6 / CHIC18 pH = 7.4 / CHIC18 pH = 10.6: C18 column; for CHI LogP: from chromatographically determined CHI on nonionized forms (pH 10.6), CHI LogP = 0.054 × CHI − 1.467
Text: Considering the significant differences in the calculations obtained, the next step of our investigation considered the determination of lipophilicity using a chromatographic approach. Among the available protocols, the fast gradient approach developed by Valko was chosen because it enables the assessment of lipophilicity from a single chromatographic measurement. In addition, this approach enables the determination of the acid/basic properties of molecules through the addition of experiments under different pH conditions.
Therefore, the CHI under pH10.6 can be considered and converted to chromatographically determined LogP, called CHI LogP. A cluster analysis (CA) was performed to compare chromatographically determined and calculated lipophilicity. A CA can be used for the visualization of similarities and differences between studied objects, in this case, lipophilic parameters. The obtained results clearly indicate that significant differences between theoretical and experimental data occurred, and they formed two separate groups (Figure 1). The differences are also visible on the calculated correlation matrix (Figure 2).
For RP-HPLC experiments, a C18 Hypersil GOLD^TM (50 mm × 4.6 mm; 5.0 µm with a guard column; Thermo Scientific, Waltham, MA, USA) column was applied. The column temperature was set to 40 °C. Three water solutions were used as mobile phase A: acetic acid at pH 2.6, […] at pH 7.4, and 50 mM ammonium acetate at pH 10.5. Mobile phase B was acetonitrile (ACN). The linear gradient from 2 to 98% ACN was applied from 0 to 5.25 min and held at 98% ACN for 1.75. The mobile phase flow rate was 1.5 mL/min throughout the experiment.

T1 sequence (P02768 25-609): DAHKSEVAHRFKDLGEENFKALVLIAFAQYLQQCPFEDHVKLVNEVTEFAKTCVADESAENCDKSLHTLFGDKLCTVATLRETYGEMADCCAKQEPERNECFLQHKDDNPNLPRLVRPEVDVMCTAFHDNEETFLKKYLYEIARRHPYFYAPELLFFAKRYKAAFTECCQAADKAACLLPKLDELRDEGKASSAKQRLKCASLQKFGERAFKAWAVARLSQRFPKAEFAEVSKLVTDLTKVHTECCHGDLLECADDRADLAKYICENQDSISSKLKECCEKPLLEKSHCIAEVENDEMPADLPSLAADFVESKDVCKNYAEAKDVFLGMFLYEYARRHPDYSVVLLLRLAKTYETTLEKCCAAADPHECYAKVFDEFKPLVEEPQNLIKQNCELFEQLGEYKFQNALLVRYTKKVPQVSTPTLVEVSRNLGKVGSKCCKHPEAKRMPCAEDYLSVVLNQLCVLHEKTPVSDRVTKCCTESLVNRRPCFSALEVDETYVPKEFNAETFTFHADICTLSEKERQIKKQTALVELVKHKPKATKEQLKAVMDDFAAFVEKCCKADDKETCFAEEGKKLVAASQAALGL

SMILES: CC(=O)Nc1ccccc1 [Acetanilidine]
- CHI (IAM-HPLC calibration) [1]: 11.5

SMILES: CC(=O)c1ccccc1 [Acetophenone]
- CHI (IAM-HPLC calibration) [1]: 17.2

SMILES: CCCC(=O)c1ccccc1 [Butyrophenone]
- CHI (IAM-HPLC calibration) [1]: 32.0

SMILES: CCCCCCC(=O)c1ccccc1 [Heptanophenone]
- CHI (IAM-HPLC calibration) [1]: 45.7

SMILES: CCCCCC(=O)c1ccccc1 [Hexanophenone]
- CHI (IAM-HPLC calibration) [1]: 41.8

SMILES: CNC(=C[N+](=O)[O-])NCCSCc1csc(CN(C)C)n1 [Nizatidine]
- HSA binding (HSA-HPLC calibration) [2]: 35.0%

SMILES: CCCCCCCC(=O)c1ccccc1 [Octanophenone]
- CHI (IAM-HPLC calibration) [1]: 49.4

SMILES: CC(=O)Nc1ccc(O)cc1 [Paracetamol]
- CHI (IAM-HPLC calibration) [1]: 2.9

SMILES: CCC(=O)c1ccccc1 [Propiophenone]
- CHI C18 [3]: 77.5
- CHI (IAM-HPLC calibration) [1]: 25.9

SMILES: CCCCC(=O)c1ccccc1 [Valerophenone]
- CHI (IAM-HPLC calibration) [1]: 37.3

SMILES: O=C1c2ccccc2S(=O)(=O)N1CCCCCCN1CCN(c2cccc3sccc23)CC1 [molecule 25]
- LogKHSA [4]: 1.57
- %HSA [4]: 98.37%
- CHIIAM [5]: 45.96
- CHIC18 pH = 2.6 [6]: 60.65
- CHIC18 pH = 7.4 [6]: 101.68
- CHIC18 pH = 10.6 [6]: 108.64
- CHI LogP [6]: 4.40

SMILES: COc1ccccc1N1CCN(Cc2ccc(CN3C(=O)c4ccccc4S3(=O)=O)cc2)CC1 [molecule 26]
- LogKHSA [4]: 1.19
- %HSA [4]: 94.87%
- CHIIAM [5]: 41.48
- CHIC18 pH = 2.6 [6]: 55.76
- CHIC18 pH = 7.4 [6]: 100.20
- CHIC18 pH = 10.6 [6]: 100.01
- CHI LogP [6]: 3.93
